Data as given in the Deep4Chem optical property database.

Assay: solvent given as SMILES

## CCCCCCN1C(=O)c2cccc3c(-c4ccc(Cl)s4)ccc(c23)C1=O
In ClC(Cl)Cl
  absorption maximum: 374 nm

## CCN(CC)c1ccc2cc(-c3nc4c5ccccc5c5ccccc5c4n3-c3ccc(C(C)(C)C)cc3)c(=O)oc2c1
In ClCCl
  absorption maximum: 410 nm

## N#C/C(=C\c1ccc(-c2ccncc2)cc1)c1ccc(-c2ccncc2)cc1
In ClCCl
  absorption maximum: 356 nm

## Cc1c(C)n2c(COC(=O)c3ccccc3I)c(C)c(=O)n2c1=O
In CCO
  absorption maximum: 377 nm

## COc1ccc(/C=C/c2cc[n+]3ccc(/C=C/c4ccc(OC)cc4)cc3c2)cc1
In CO
  absorption maximum: 444 nm

## Cc1cccc2c1nc1c(=O)n(C)c(=O)nc-1n2C
In CC#N
  absorption maximum: 440 nm

## [O-][n+]1c(/C=C/c2ccccc2)nc(Nc2ccccc2)c2c1CCCC2
In ClCCl
  absorption maximum: 416 nm

## CCN1c2ccc(/C=N/Nc3ccccn3)cc2Sc2cc(-c3cccc4ccccc34)ccc21
In C1CCOC1
  absorption maximum: 378 nm
In CS(C)=O
  absorption maximum: 383 nm
In Cc1ccccc1
  absorption maximum: 378 nm
In ClCCl
  absorption maximum: 379 nm

## CCOC(=O)c1c(C(=O)OC)c(-c2cc3cc(OC)ccc3oc2=O)nn1-c1ccccc1
In ClCCl
  absorption maximum: 351 nm

## c1ccc(-c2nc(-c3ccccc3)nc(-c3ccc(-c4ccc(N5c6ccccc6[Si](c6ccccc6)(c6ccccc6)c6ccccc65)cc4)cc3)n2)cc1
In Cc1ccccc1
  absorption maximum: 308 nm

## C(S/C=C/c1ccc(/C=C/SC=C2CCCCCCC2)cc1)=C1CCCCCCC1
In ClCCl
  absorption maximum: 355 nm

## CCCCCCCCN1C(=O)c2ccc3c4c(-c5ccc6c7ccccc7n(-c7ccccc7)c6c5)cc5c6c(ccc(c7c(-c8ccc9c%10ccccc%10n(-c%10ccccc%10)c9c8)cc(c2c37)C1=O)c64)C(=O)N(CCCCCCCC)C5=O
In ClC(Cl)Cl
  absorption maximum: 577 nm

## CC1=c2c3c4cccc5cccc(c=3c(C)[n+]2[B-](F)(F)n2c(C)c3c(c21)-c1cccc2cccc-3c12)c54
In ClC(Cl)Cl
  absorption maximum: 657 nm

## N#Cc1nc2cnc(N)nc2n1Cc1ccccc1
In C1COCCO1
  absorption maximum: 331 nm
In CC#N
  absorption maximum: 330 nm
In CO
  absorption maximum: 333 nm
In ClCCl
  absorption maximum: 326 nm
In O
  absorption maximum: 331 nm

## Cc1cc(-c2ccccc2)cc(C)[o+]1
In CC#N
  absorption maximum: 326 nm
In ClCCl
  absorption maximum: 343 nm

## CCCCCCCc1ccc(C2=[N+]3C(=C4c5cc(OCC(CC)CC)c(-c6ccc(CCCCCCC)o6)n5[B-](F)(F)[n+]5nnn(c54)[B-]3(F)F)C=C2OCC(CC)CC)o1
In C1CCOC1
  absorption maximum: 811 nm
In ClCCl
  absorption maximum: 826 nm

## CC1(C)c2ccccc2N2c3ccccc3C3(c4cc(C#N)ccc4-c4ccc(C#N)cc43)c3cccc1c32
In Cc1ccccc1
  absorption maximum: 327.78 nm

## CCC1=C(C)C2=C(c3c4ccccc4c(C)c4ccccc34)c3c(C)c(CC)c(C)n3[B-](F)(F)[N+]2=C1C
In CC#N
  absorption maximum: 527 nm
In CCCCCC
  absorption maximum: 529 nm
In CCO
  absorption maximum: 528 nm
In CN(C)C=O
  absorption maximum: 530 nm
In Cc1ccccc1
  absorption maximum: 532 nm
In ClCCl
  absorption maximum: 531 nm

## CCCCCCN1C(=O)c2cccc3c(-c4ccc(-c5cc(-c6ccc(C)cc6)nn5-c5ccccc5)s4)ccc(c23)C1=O
In ClCCl
  absorption maximum: 389 nm

## CN(C)c1ccc(C=C2Oc3cccc(O)c3C2=O)cc1
In CC#N
  absorption maximum: 449 nm

## C(=C\c1cccc2ccccc12)/c1ccc(-c2nnc(-c3ccc(-c4cc5ccccc5s4)cc3)o2)cc1
In CC#N
  absorption maximum: 349 nm
In CC(C)=O
  absorption maximum: 350 nm
In CCCCCCCC
  absorption maximum: 354 nm
In CCCCCCCCCCO
  absorption maximum: 360 nm
In CCCCCCCCO
  absorption maximum: 359 nm
In CCCCCO
  absorption maximum: 356 nm
In CCCO
  absorption maximum: 342 nm
In CN(C)C=O
  absorption maximum: 357 nm
In CO
  absorption maximum: 351 nm
In CS(C)=O
  absorption maximum: 360 nm

## CC(C)(C)c1ccc2c(c1)c1cc(C(C)(C)C)ccc1n2-c1ccc(-n2c3ccc(C(C)(C)C)cc3c3cc(C(C)(C)C)ccc32)c(C(=O)c2ccncc2)c1
In Cc1ccccc1
  absorption maximum: 418 nm

## Cc1ccc(C(=O)c2c(C)c3ccc4cccc5c6cccc7ccc2c(c76)c3c45)cc1
In ClCCl
  absorption maximum: 391 nm

## Cc1ccc(N(c2ccccc2)c2ccc3ccc4c(N(c5ccccc5)c5ccc(C)cc5)ccc5ccc2c3c54)cc1
In ClCCl
  absorption maximum: 428 nm

## Brc1ccc2cc3c4ccccc4nc(-c4ccco4)c3n2c1
In CS(C)=O
  absorption maximum: 411 nm

## CC(C)(C)Nc1c(-c2ccc(-c3cc(=O)cc(-c4ccccc4)o3)cc2)nc2ccccn12
In ClCCl
  absorption maximum: 355 nm

## Cc1ccc2cc3c(=O)n(C)c(=O)n(C)c3nc2c1
In CC#N
  absorption maximum: 353 nm
In CC(C)O
  absorption maximum: 353 nm
In CCO
  absorption maximum: 353 nm
In CO
  absorption maximum: 352 nm
In ClC(Cl)Cl
  absorption maximum: 355 nm
In ClCCl
  absorption maximum: 355 nm

## COc1ccc(-c2c3nc(cc4ccc([nH]4)c(-c4ccc(OC)c(OCCCC(=O)O)c4)c4nc(cc5ccc2[nH]5)C=C4)C=C3)cc1OCCCC(=O)O
In CS(C)=O
  absorption maximum: 634 nm

## CC1(C)c2ccccc2N(c2ccc(-c3nc4cc(C#N)c(C#N)cc4nc3-c3ccc(N4c5ccccc5C(C)(C)c5ccccc54)cc3)cc2)c2ccccc21
In Cc1ccccc1
  absorption maximum: 454 nm

## COc1ccc2cc(C3=[N+]4C(=Nc5c(-c6ccc7ccccc7c6)cc(-c6ccc7cc(OC)ccc7c6)n5[B-]4(F)F)C(c4ccc5ccccc5c4)=C3)ccc2c1
In ClCCl
  absorption maximum: 718 nm

## C1=C2c3cc4ccccc4cc3C3=[N+]2[B-]2(Oc4ccccc43)Oc3ccccc3-c3c4cc5ccccc5cc4c1n32 (stereo unspecified)
In C1CCOC1
  absorption maximum: 830 nm

## Cc1ccc(-c2cc(/C=C/c3ccc(N(c4ccccc4)c4ccccc4)cc3)c(-c3ccc(C)cc3)cc2/C=C/c2ccc(N(c3ccccc3)c3ccccc3)cc2)cc1
In ClCCl
  absorption maximum: 410 nm

## COc1ccc(C2=[N+]3C(=Nc4c(-c5cc(OC)c(OC)c(OC)c5Br)c(-c5ccc(C(C)(C)C)cc5)c(-c5ccc(OC)cc5)n4[B-]3(F)F)C(c3cc(OC)c(OC)c(OC)c3Br)=C2c2ccc(C(C)(C)C)cc2)cc1
In Cc1ccccc1
  absorption maximum: 706 nm

## COc1ccc(-c2cc3c(s2)c(C(C)=O)cc(=O)n3C)cc1
In CC#N
  absorption maximum: 412 nm
In ClCCl
  absorption maximum: 418 nm

## C(=C1c2ccccc2CCc2ccccc21)c1ccc(-c2ccc(C=C3c4ccccc4CCc4ccccc43)cc2)cc1
In C1CCOC1
  absorption maximum: 335 nm

## Cn1c2nc(=O)[nH]c(=O)c-2nc2ccccc21
In CC1CCCO1
  absorption maximum: 459 nm

## CC1(C)C(/C=C/C=C/c2cc3ccc(O)cc3oc2=O)=[N+](CCCS(=O)(=O)[O-])c2ccccc21
In CS(C)=O
  absorption maximum: 491 nm
In O
  absorption maximum: 564 nm

## CN1/C(=C/C=C/C2=[N+](C)c3ccccc3C2(C)C)Sc2ccccc21
In CS(C)=O
  absorption maximum: 549 nm

## CN(C)c1ccc(C(=O)Nc2ccccc2)cc1
In C1CCCCC1
  absorption maximum: 307 nm
In C1CCOC1
  absorption maximum: 311 nm
In CC#N
  absorption maximum: 314 nm
In CCOCC
  absorption maximum: 307 nm

## CN(C)c1ccc2cc3ccc(N(C)C)cc3nc2c1
In O
  absorption maximum: 500 nm

## Cc1ccc(/C2=c3\cc/c(o3)=C(\c3ccc(C)cc3)c3ccc([nH]3)-c3ccc4n3[B-](F)(F)[N+]3=C(C=CC3=C4c3cccs3)c3ccc2[nH]3)cc1
In ClC(Cl)Cl
  absorption maximum: 709 nm

## CC1CCC(O)(c2ccc(-c3cccs3)s2)CC1 (stereo unspecified)
In C1CCOC1
  absorption maximum: 341 nm
In CC#N
  absorption maximum: 341 nm
In CCCCCC
  absorption maximum: 341 nm
In CCO
  absorption maximum: 341 nm
In OCCOCCO
  absorption maximum: 345 nm
In c1ccncc1
  absorption maximum: 345 nm

## CCn1c2ccccc2c2cc(-c3cc(-c4ccc5c(c4)c4ccccc4n5CC)nc(SC)n3)ccc21
In C1CCOC1
  absorption maximum: 371 nm
In CCOC(C)=O
  absorption maximum: 369 nm
In CN(C)C=O
  absorption maximum: 374 nm
In Cc1ccccc1
  absorption maximum: 370 nm
In ClCCl
  absorption maximum: 370 nm

## Cc1cc(-c2cccc3ccccc23)cc(C)[o+]1
In ClCCl
  absorption maximum: 438 nm

## c1ccc(-c2cc(-c3ccccc3)cc(-c3ccc4c(c3)C3(c5cc(-c6cc(-c7ccccc7)cc(-c7ccccc7)c6)ccc5-4)c4ccccc4-c4c3c3c5ccccc5ccc3c3ccccc43)c2)cc1
In C1CCOC1
  absorption maximum: 379 nm

## O=Cc1ccc(-c2ccc(-c3nc4ccccc4s3)c(O)c2)s1
In CCO
  absorption maximum: 376 nm

## CCOC(=O)c1c2c3c(ccc(Cl)c3c3cc4c(cc13)[Si](C)(C)O[Si]4(C)C)N(C)C2=O
In CC#N
  absorption maximum: 378 nm

## C(=C\c1ccnc(/C=C/c2ccc(N(c3ccccc3)c3ccccc3)cc2)n1)/c1ccc(N(c2ccccc2)c2ccccc2)cc1
In ClCCl
  absorption maximum: 402 nm

## CCCCn1/c(=C/C=C/C2=[N+](C)c3ccccc3C2(C)C)c2cccc3cccc1c32
In CS(C)=O
  absorption maximum: 672 nm

## CN1C(=CC2=C([O-])C(=CC3=[N+](C)c4ccc(Cl)cc4C3(C)C)C2=O)C(C)(C)c2cc(Cl)ccc21
In CO
  absorption maximum: 635 nm
In ClC(Cl)Cl
  absorption maximum: 641 nm
In ClCCl
  absorption maximum: 641 nm

## c1ccc2c(c1)-c1cc(-n3c4ccccc4c4ccccc43)ccc1C21c2ccccc2-n2c3ccccc3c3cccc1c32 (stereo unspecified)
In ClCCl
  absorption maximum: 339 nm

## COC1=C/C(=C\C=C2C=CN(Cc3ccc(Br)cc3)C=C2)C=CC1=O
In CC#N
  absorption maximum: 617 nm
In CC(C)=O
  absorption maximum: 624 nm
In CC(C)CO
  absorption maximum: 576 nm
In CC(C)O
  absorption maximum: 585 nm
In CCC#N
  absorption maximum: 620 nm
In CCCCCCO
  absorption maximum: 584 nm
In CCCCCO
  absorption maximum: 588 nm
In CCCCO
  absorption maximum: 576 nm
In CCCO
  absorption maximum: 577 nm
In CCO
  absorption maximum: 568 nm
In CN(C)C=O
  absorption maximum: 621 nm
In CN(C)P(=O)(N(C)C)N(C)C
  absorption maximum: 629 nm
In CO
  absorption maximum: 537 nm
In CS(C)=O
  absorption maximum: 619 nm

## COc1ccccc1
In C1CCCCC1
  absorption maximum: 267.24 nm

## COc1ccc2cc(-c3ccc(-c4cc5ccc(OC)cc5oc4=O)cc3)c(=O)oc2c1
In ClC(Cl)Cl
  absorption maximum: 362 nm

## C1=Cc2ccccc2C(=Cc2ccc(-c3ccc(C=C4c5ccccc5-c5ccccc54)cc3)cc2)c2ccccc21
In C1CCOC1
  absorption maximum: 357 nm

## Cc1ccc2nc3c(nc2c1)c(-c1ccccc1)nn3C
In C1CCCCC1
  absorption maximum: 424 nm
In C1CCOC1
  absorption maximum: 425 nm
In CC#N
  absorption maximum: 423 nm

## Cc1cccn2c1cc1c3ccccc3nc(-c3ccco3)c12
In CS(C)=O
  absorption maximum: 400 nm

## CC(C)=CCN1C(=O)c2cccc3c2c(cc2nc(C)oc23)C1=O
In CCO
  absorption maximum: 362 nm

## c1ccc(N(c2ccccc2)c2c3ccccc3cc3ccccc23)cc1
In Cc1ccccc1
  absorption maximum: 428 nm

## CCCCCCN(CCCCCC)c1ccc(C#Cc2ccc(C#N)cc2)cc1
In CC#N
  absorption maximum: 379 nm
In CO
  absorption maximum: 378 nm
In ClCCl
  absorption maximum: 385 nm
